The values that follow come from patent US9157109B2, “Biosensors utilizing ink jet-printed biomolecule compatible sol gel inks and uses thereof” (McMaster University, priority 2009, dated 2015).

One may read the IC50 as the concentration that gives 50% inhibition. What is called Km is the concentration of substrate that gives half-maximal velocity.

The target in test [1] is T1, acetylcholinesterase (AChE) (Electrophorus electricus, UniProt O42275). Put plainly: Ellman colorimetric assay on ink jet printed PVAm/silica/AChE+DTNB/silica paper sensor. The protocol:
The performance can be assessed in two ways: a) by direct addition of substrate solution to sensing area, and b) by immersion into the substrate solution. […] However, in the case of direct analyte addition, only small amounts of reagent are needed (5 μL) relative to dipstick sensors (˜2 mL), reducing cost per assay. […] The color intensity of the sensing areas was quantified by obtaining a digital image (Canon A630, 8.0 MegaPixel operated in automatic mode with no flash and with the macroimaging setting on) and using ImageJ™ software to analyze the jpeg images. ImageJ™ software uses a […] color scale and for image processing the images were inverted so that areas that were originally white became black and corresponded to a color intensity of zero and while areas that were originally black became white and corresponded to […]. Based on this scale, increases in the amount of yellow color cause an increase in color intensity of the sensor strips. To account for variations in color intensity owing to differences in environmental illumination, a background subtraction (color intensity of the paper surface closest to the sensing area) was done for each data point.
The intensity was determined by analyzing a digital image with the ImageJ software as described above.
A general note: Ellman's reagent forms a yellow product with free thiols.

In test [2] the target is T1, acetylcholinesterase (AChE). Nature of the test: biochemical. The test is classed as biochemical. More on the design: purchased Sigma-Aldrich. Conditions: for apparent saturated inhibition concentration / LOD: IPA lateral flow sensor; for detection limit (LOD): S/N=3, IPA lateral flow sensor. As for the experimental part: 20 μL of IPA (0˜5 mM) was then added into each well and incubated for 5 min to allow color development. The absorbance at 640 nm was then measured using a TECAN plate reader.
The performance of the sensor under optimized conditions can be assessed in two ways: (1) directly (normal lateral flow-based chromatography) without incubating the contaminated sample, and (2) inverted lateral flow-based chromatography with incubation of the sample. For the latter case, after incubation 5 min at room temperature, the sensor was inverted again and immersed into dH2O for bringing up IPA by lateral flow action into sensing area of the strip above the liquid level.
The sensor was then inverted again and immersed into dH2O to bring up IPA by lateral flow action into the sensing area of the strip above the liquid level. The color intensity was determined by analyzing a digital image with the ImageJ software as described above.

For another test, the target named is T2, β-Glucuronidase (GUS) (Escherichia coli, UniProt P05804).
T2 construct: purchased Sigma-Aldrich type VII-A (catalogue number not given)
T2 sequence (P05804 whole entry): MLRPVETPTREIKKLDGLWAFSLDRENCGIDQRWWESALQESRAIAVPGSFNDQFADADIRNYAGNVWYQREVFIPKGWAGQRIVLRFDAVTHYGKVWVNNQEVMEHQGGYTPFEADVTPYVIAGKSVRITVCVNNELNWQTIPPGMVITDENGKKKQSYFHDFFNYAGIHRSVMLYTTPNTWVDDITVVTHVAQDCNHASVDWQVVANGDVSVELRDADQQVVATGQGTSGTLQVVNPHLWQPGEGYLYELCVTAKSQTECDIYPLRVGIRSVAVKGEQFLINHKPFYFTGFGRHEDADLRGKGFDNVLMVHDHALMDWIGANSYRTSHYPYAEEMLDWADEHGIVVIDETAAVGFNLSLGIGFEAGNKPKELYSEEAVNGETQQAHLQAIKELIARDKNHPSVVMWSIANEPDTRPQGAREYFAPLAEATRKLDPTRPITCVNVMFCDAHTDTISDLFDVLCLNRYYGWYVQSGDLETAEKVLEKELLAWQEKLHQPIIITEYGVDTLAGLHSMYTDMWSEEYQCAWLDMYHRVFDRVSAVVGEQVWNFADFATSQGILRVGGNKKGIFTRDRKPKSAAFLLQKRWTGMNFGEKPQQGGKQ
The test is classed as biochemical, E. coli. The protocol:
For this, all of these substrates were dissolved separately with sodium phosphate buffer (75 mM, pH 8). […] 20 μL of GUS (final concentration of 1 U/mL) was then added into each well and incubated for 30 min to allow color development. The absorbance at 610, 400, and 380 nm was then measured using a TECAN M1000 plate reader. A digital camera was also used to take a photograph of the plate. […] (0-10 mM), and FeCl3 (2 mM) were entrapped on paper as described previous section (FIG. 13b). The sensor was then immersed into GUS solution (1 U/mL) and removed as soon as the Gus solution has reached the sensing region through FeCl3 zone followed by a certain incubation time (5, 30, and 60 min) at room temperature.
Experiments were conducted firstly in 96-well plate, in which GUS (final concentration of 1 U/mL) was entrapped in silica gel. […] (4 mM) and oxidizing agents (1 mM each) were then added to each well (designated for the individual oxidizing agent), and incubated for 30 min. The concentration gradient (0-30 mM) of FeCl3 was also observed in 96-well plate. The absorbance at 610 was measured using a TECAN M1000 plate reader for each experiment. A digital camera was also used to take a photograph of the plate. […] (3 mM) were entrapped on paper using biocompatible silica material in order to make the sensor strips, as described in the previous section. The performance of the sensor was then assayed by dipping it into the GUS solution (1 U/mL) to allow the enzyme solution to reach the sensing zone through FeCl3 zone via lateral flow. The color development times tested were 5, 30, and 60 min.

The target in test [3] is T1, acetylcholinesterase (AChE). The test is classed as biochemical. Also on record: purchased Sigma-Aldrich.
Test [4] shares this target. The test is classed as biochemical. Also on record: purchased Sigma-Aldrich. This is another data set of the same source.
Test [5] has the same target. Type of test: biochemical. More on the design: purchased Sigma-Aldrich. Conditions: milk and apple juice samples (pH adjusted 7-8).
For test [6] the target is unchanged. The conditions noted are these: read-out: KM, literature value; cited from earlier work.

Where two headings read alike, the source gives them in different places.

T1 sequence (O42275 24-633): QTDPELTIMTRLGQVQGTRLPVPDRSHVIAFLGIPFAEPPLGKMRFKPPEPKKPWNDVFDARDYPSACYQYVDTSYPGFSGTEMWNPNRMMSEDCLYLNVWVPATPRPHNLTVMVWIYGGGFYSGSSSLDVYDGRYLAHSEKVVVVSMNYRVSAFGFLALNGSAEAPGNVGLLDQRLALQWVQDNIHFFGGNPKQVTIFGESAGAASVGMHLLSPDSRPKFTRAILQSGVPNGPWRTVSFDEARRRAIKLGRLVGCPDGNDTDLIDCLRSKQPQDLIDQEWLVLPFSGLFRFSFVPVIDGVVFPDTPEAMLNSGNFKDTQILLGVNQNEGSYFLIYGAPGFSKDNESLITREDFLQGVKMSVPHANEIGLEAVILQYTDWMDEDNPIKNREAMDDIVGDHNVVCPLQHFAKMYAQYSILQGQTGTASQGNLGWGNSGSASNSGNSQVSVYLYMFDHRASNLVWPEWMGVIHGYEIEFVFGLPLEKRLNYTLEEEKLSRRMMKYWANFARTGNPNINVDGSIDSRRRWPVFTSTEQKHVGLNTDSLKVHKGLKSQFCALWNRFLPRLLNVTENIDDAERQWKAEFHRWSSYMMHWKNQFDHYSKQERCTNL

With aflatoxin B1 [AfB1], the “detection limit (LOD)” value in test [1] is around 30 nM. Further, in test [1] (0.1 µM), the “inhibition of AChE” value is on record as around 45%. The IC50 in test [1] (read-out: IC50 for inhibition of AChE) was around 0.1 µM.

Regarding `CNC(=O)Oc1cccc2ccccc12` [carbaryl], in test [2], inhibition was half-maximal at 0.05 µM (IC50), the “apparent saturated inhibition concentration” value was around 5 µM and the “detection limit (LOD)” value was around 100 nM.

Take `CNC(=O)Oc1cccc2c1OC(C)(C)O2` [bendiocarb]: in test [2], the IC50 is 0.02 µM, the “apparent saturated inhibition concentration” value was “around 1 μM” and the “detection limit (LOD)” value is “ca. 10 nM”.

On to `O=C(O)[C@H]1O[C@@H](Oc2ccc([N+](=O)[O-])cc2)[C@H](O)[C@@H](O)[C@@H]1O` [PNPG, p-nitrophenyl-β-D-glucuronide], for which, at β-Glucuronidase (GUS) (in solution for 30 min), the “visual color formation via GUS catalyzed hydrolysis” value was “relatively faint color”.

As to Triton X-100, the “effect of additive on AChE activity in solution” value in test [3] is reported as “No significant loss of AChE activity”.

For the molecule `CCOP(=O)(OCC)Oc1ccc([N+](=O)[O-])cc1` [paraoxon], the “detection limit (LOD)” value in test [1] (S/N=3, Ellman paper sensor) is recorded as “ca. 100 nM”. In addition, the “inhibition of AChE” value is given as around 25% in test [1] (at 100 nM inhibitor); around 50% in test [4] (1 mM paraoxon sprayed on apple and head lettuce); “almost complete inhibition” in test [4] (50 mM paraoxon sprayed on apple and head lettuce). This molecule returned a detection limit in test [5] of around 10 nm. Further, the LOD entry in test [2] is “ca. 10 μM”.

As to `NC1CCCCC1.O=C(O)[C@H]1O[C@@H](Oc2c[nH]c3ccccc23)[C@H](O)[C@@H](O)[C@@H]1O` [IBDG, indoxyl-β-D-glucuronide cyclohexylammonium salt], at β-Glucuronidase (GUS), the “visual color formation via GUS catalyzed hydrolysis” value is on record as “relatively faint color”.

For `O.O.O.O.O.O.[Cl-].[Cl-].[Cl-].[Fe+3]` [FeCl3, FeCl3. 6H2O], on β-Glucuronidase (GUS), the “blue color development with oxidizing agent” value is “strongest visual color intensity”.

Take `N#CC1=C(C#N)C(=O)C(Cl)=C(Cl)C1=O` [DDQ, 2,3-dichloro-5,6-dicyanobenzoquainone]: the “blue color development with oxidizing agent” value on β-Glucuronidase (GUS) is on record as “poorest performance for blue color development”.

On to `CC(=O)Oc1ccc(N=C2C=CC(=O)C=C2)cc1` [IPA, indophenyl acetate], for which the Michaelis-Menten constant (Km) in test [6] was around 700 µM; in test [2], around 1500 µM.

Take `CCOC(=O)CC(SP(=S)(OC)OC)C(=O)OCC` (stereo not shown) [malathion]: in test [2], the IC50 is around 0.01 µM and the LOD entry is listed as “ca. 10 μM”.

With `OCC(O)CO` [glycerol], the “effect of additive on AChE activity in solution” value in test [3] is “did not produce a decrease in AChE activity”.
